We go through 2 molecules from article PMC6470603, “Design and Synthesis of Matrine Derivatives as Novel Anti-Pulmonary Fibrotic Agents via Repression of the TGFβ/Smad Pathway” (Molecules, 2019).

The subject of one data set is MRC-5 fibroblasts. Description: Scratch (wound healing) assay, TGF-β1-induced fibroblast migration. The following applies: 10 μM, 10 ng/mL TGF-β1, 24 h (TGF-β1 alone 85.0%). In kind it is cell-based, human. The method, then: Fibroblast migration is the key event in pulmonary fibrogenesis. […] Inhibition of lung fibroblasts migration is a promising potential therapeutic target for IPF. We performed wound healing assay to investigate the inhibitory effect of 3f and matrine against fibroblast migration (Figure 7).
MRC-5 cells were seeded on 6-well plates and allowed to reach confluence for 48 h. The cell monolayer was gently scratched with a 1 mL pipette tip across the center of the well. After scratching, the cells were washed twice with medium to remove detached cells. The cells were then treated with or without 10 ng/mL TGF-β1 in the presence of vehicle or 10 μM 3f for 24 h. The gap area in wound region was quantitatively evaluated using ImageJ [30] and MRI wound healing tool plugin [31].

For data set [1], the system named is TGF-β1 induced total collagen accumulation in MRC-5 cells. Description: Sircol collagen assay: inhibition of TGF-β1-induced total collagen accumulation. Format: cell-based, human. The following applies: for IC50: Homo sapiens, MRC5, 10 ng/mL TGF-β1, 48 h, Sircol collagen assay; for SI, selectivity index (SI = CC50/IC50): MRC-5 cells. The method, then: Higher SI values indicates better safety profile.
MRC-5 cells in 1 × 10^5 cells/mL density were seeded in TC treated 96-well plates and allowed to reach confluence for 48 h. The cells were then starved using MEM-NEAA containing 0.2% BSA for 24 h. After starvation, the medium was changed to MEM-NEAA supplemented with 0.2% BSA, 100 μM L-Proline, 100 μM Ascorbic acid, with or without 10 ng/mL TGF-β1 (Peprotech) in the presence of vehicle or different concentrations of compounds. After 48 h incubation, the MRC-5 cells were washed with phosphate buffered saline (PBS) and fixed in −20 °C precooled methanol for 10 min. The cells were than washed with PBS before incubation in 0.1% PSR staining solution (0.1% Sirus red in saturated water solution of picric acid) for 1 h. The staining solution was then removed and the cells were washed with 0.1% acetic acid for three times. 200 μL of 0.1 mol/L sodium hydroxide solution were added to each well and the plates were placed on a rocking platform for 1 h. The optical density (OD) values at 550 nm were determined with an Infinite 2000 spectrophotometer.

The test system of data set [2] is TGF-β receptor type I (TGFβRI) in MRC-5 cells. In words: Immunofluorescence assay, TGFβRI expression. Format: cell-based, human. Conditions: 10 μM, 48 h, 10 ng/mL TGF-β1, mean fluorescence intensity. The source says: Another emerging effect of Smad which acts as the amplifier of TGF-β signaling also contribute to fibrotic diseases. The nuclear translocation of Smad3 leads to the activation of the miR-433 promotor region. miR-433 promotes the decrease of antizyme inhibitor I (Azin1) and eventually results in depletion of polyamine, which causes the upregulation of expression level of TGF-β receptor type I (TGFβRI) and TGF-β1. This series of signaling creates a positive-feedback loop which amplify the TGFβ signaling.
(§1) MRC-5 cells were seeded on 0.2% gelatin-coated glass coverslips and treated with or without 10 ng/mL TGF-β1 in the presence of vehicle or 10 μM 3f for 48 h. The cells were washed with PBS and fixed in freshly prepared 4% paraformaldehyde (PFA) at room temperature for 10 min. The cells were then permeabilized with 0.25% Triton X-100 for 10 min before 30 min of blocking by PBS solution supplemented with 1% BSA and 22.5 mg/mL glycine (the permeabilization was omitted for S100A4 and TGFβRI staining). The cells were incubated with primary antibody overnight at 4 °C and labeled with AlexaFluor 488-conjugated or Dylight 488-conjugated secondary antibody. […] The mean fluorescence intensity (MFI) of each photo was calculated by ImageJ. […]

A short description of data set [3]: Cytotoxicity assay (CCK-8). The following applies: human, MRC-5 cells (human fetal lung fibroblasts).
Protocol: (§5) Cytotoxicity of all compounds were also determined against MRC-5 cells, so as to calculate selectivity index (SI, CC50/IC50).
(§6) MRC-5 cells in passage between 21 to 26 were used for experiments.
(§7) MRC-5 cells were incubated with different concentrations of compounds for 48 h, and then 10 μL of CCK-8 solution were added to each well. The cells were incubated at 37 °C for another 3 h before determining the OD values at 492 nm. DMSO at 0.1% v/v final concentration was used to solubilize the test compounds, except for compound 3b, 3c, and 3e, where 1% v/v DMSO was used to ensure complete solubilization.
The subject of data set [4] is alpha-smooth muscle actin (α-SMA) in MRC-5 cells. Description: Immunofluorescence assay, α-SMA expression (fibroblast-to-myofibroblast transition). Format: cell-based, human. The following applies: 10 μM, 48 h, 10 ng/mL TGF-β1, mean fluorescence intensity. The text has this:
(§2) Myofibroblasts, a further differentiated subset of fibroblasts, are primary effector cells for collagen synthesis in fibrotic disorders. Inhibition of fibroblast differentiation is an important therapeutic target for IPF treatment. To examine whether 3f could inhibit TGF-β1-induced fibroblast-to-myofibroblast transition, we investigated the expression level of alpha-smooth muscle actin (α-SMA) and S100A4, the key markers which distinguish myofibroblasts from their precursor fibroblasts. We observed dramatic upregulation of myofibroblast markers in response to TGF-β1 stimulation (774.9% and 537.7% for α-SMA and S100A4, respectively), characterizing a strong expression of myofibroblast phenotype.
(§3) MRC-5 cells were seeded on 0.2% gelatin-coated glass coverslips and treated with or without 10 ng/mL TGF-β1 in the presence of vehicle or 10 μM 3f for 48 h. The cells were washed with PBS and fixed in freshly prepared 4% paraformaldehyde (PFA) at room temperature for 10 min. The cells were then permeabilized with 0.25% Triton X-100 for 10 min before 30 min of blocking by PBS solution supplemented with 1% BSA and 22.5 mg/mL glycine (the permeabilization was omitted for S100A4 and TGFβRI staining). […] The mean fluorescence intensity (MFI) of each photo was calculated by ImageJ. […]

The subject of data set [5] is Collagen type I alpha-1 chain (COL1A1) in MRC-5 cells. In words: Immunofluorescence assay, COL1A1 expression. Format: cell-based, human. The following applies: 10 μM, 48 h, 10 ng/mL TGF-β1, mean fluorescence intensity. How it is done:
(§4) Due to the significance of collagen in IPF pathogenesis, we first evaluated the inhibitory effect of key compound 3f against collagen accumulation. Immunofluorescence staining was employed to investigate collagen protein expression.
as §1

Data set [6] concerns fibronectin in MRC-5 cells. In words: Immunofluorescence assay, fibronectin expression. In kind it is cell-based, human. The following applies: 10 μM, 48 h, 10 ng/mL TGF-β1, mean fluorescence intensity. The method, then:
Next, we evaluated the inhibitory effect of 3f against fibronectin expression. Fibronectin is another major constituent of ECM and plays a critical role in fibrogenesis by promoting the migration, proliferation, and adhesion of fibroblasts.
as §1

Data set [7] has as its system Collagen type III alpha-1 chain (COL3A1) in MRC-5 cells. In words: Immunofluorescence assay, COL3A1 expression. In kind it is cell-based, human. Conditions: 10 μM, 48 h, 10 ng/mL TGF-β1, mean fluorescence intensity. How it is done: as §4, §1
The subject of another data set is S100A4 in MRC-5 cells. In words: Immunofluorescence assay, S100A4 expression (fibroblast-to-myofibroblast transition). In kind it is cell-based, human. Conditions: 10 μM, 48 h, 10 ng/mL TGF-β1, mean fluorescence intensity.
From the text: as §2, §3

For another data set, the system named is Smad2/3 in MRC-5 cells. In words: Immunofluorescence assay, cellular localization of Smad2/3. In kind it is cell-based, human. The following applies: 10 μM, 48 h, 10 ng/mL TGF-β1.
From the text: Small mothers against decapentaplegic homologs (Smad) are key mediators and regulators of TGFβ signaling. The binding of TGF-β1 to TGFβ receptors leads to the phosphorylation of Smad2/3 complex, which then translocate into nucleus to enhance gene transcription by cooperating with DNA transcription factors. Inhibition of the nuclear translocation of Smad2/3 could attenuate the transcription of profibrotic genes such as collagens and α-SMA. Therefore, we investigated the cellular localization of Smad2/3 by immunofluorescence assay. As depicted in Figure 6A, Smad2/3 predominately localize in cytoplasm under normal conditions, but translocate into nucleus upon TGF-β1 stimulation.
as §3

A short description of another data set: in vitro. Conditions: human.

For orientation: IC50 means the point on the concentration scale where inhibition reaches its midpoint. High values mean weaker potency in that assay, low ones greater potency in that assay.

Molecules are shown by their SMILES.

Protocol for in vitro: as §5, §6, §7

With `O=C1CC(n2ccc3cc(Cl)ccc32)CC2C3CCCN4CCCC(CN12)C34` (centres unmarked) [3f, 13-(5-chloro-1H-indol-1-yl)-matrine], in the data set on MRC-5 fibroblasts, the “closure of wound area over 24 h period” value is on record as 37.7%. Also, in data set [1], 3.3 ± 0.3 µM corresponded to half-maximal inhibition (IC50) and the “SI, selectivity index (SI = CC50/IC50)” value was 8.0. For the same molecule, in data set [2], the “reduction of TGF-β1-induced upregulation of TGFβRI expression level” value came to 46.7%. In [3], the CC50 at 48 h stood at 26.7 ± 0.7 µM. For the same molecule, the “downregulation in expression level of α-SMA compared to TGF-β1 stimulation group” value in data set [4] is reported as 45.8%. For the same molecule, in data set [5], the “decrease in expression level of COL1A1 relative to TGF-β1 stimulation group” value is 46.2%. Further, in [6], the “reduction of expression level of fibronectin comparing to TGF-β1 stimulation group” value is 40.0%. The “decrease in expression level of COL3A1 relative to TGF-β1 stimulation group” value in data set [7] is 31.1%. Further, the “downregulation in expression level of S100A4 compared to TGF-β1 stimulation group” value with S100A4 in MRC-5 cells worked out at 17.7%. Further, the “effect on cytoplasm-to-nuclear translocation of Smad2/3” value in the data set on Smad2/3 in MRC-5 cells is “significantly inhibit the cytoplasm-to-nuclear translocation of Smad2/3”.
In the case of `O=C1C=CC[C@@H]2[C@H]3CCCN4CCC[C@@H](CN12)[C@@H]34` [Sophocarpine, reference compound], in data set [1], it took 1190 ± 135 µM to reach half-maximal inhibition (IC50) and the “SI, selectivity index (SI = CC50/IC50)” value is 2.7. Moreover, the CC50 at 48 h in “in vitro” worked out at 3160 ± 355 µM.
